Results published in patent US9180159B2, “Use of cell-permeable peptide inhibitors of the JNK signal transduction pathway for the treatment of chronic or non-chronic inflammatory digestive diseases” (Xigen Inflammation Ltd., priority 2008, dated 2015).

Assays:
[1] = system: TC-3 cells; assay: IL-1 induced pancreatic beta-cell death in TC-3 cells treated with peptides; type: cell-based; settings: one single addition 1 μM, IL-1 10 ng/ml every two days
Protocol: Inhibition of IL-1 induced pancreatic beta-cell death by the D-TAT-IB1(s) peptide was analyzed. TC-3 cells were incubated as described above for 30 minutes with one single addition of the indicated peptides (1, μM), then IL-1 (10 ng/ml) was added.
Apoptotic cells were then counted after two days of incubation with IL-1 by use of Propidium Iodide and Hoechst 33342 nuclear staining. A minimum of 1,000 cells were counted for each experiment.
Long term inhibition of IL-1P induced cell-death by the D-TAT-IB1 peptide was also analyzed. TC-3 cells were incubated as above for 30 minutes with one single addition of the indicated peptides (1 μM), then IL-1 (10 ng/ml) was added, followed by addition of the cytokine every two days. Apoptotic cells were then counted after 15 days of incubation with IL-1 by use of propidium iodide and Hoechst 33342 nuclear staining. […] A minimum of 1.000 cells were counted for each experiment.

[2] = system: AP-1 DNA binding complex; assay: Gel retardation assay with AP-1 probe, HeLa cell nuclear extracts; type: cell-based; settings: in the presence of TNF-alpha, peptide added 30 minutes before
[3] = system: JNK mediated activation of c-Jun in HeLa cells; assay: GAL4-Jun luciferase reporter assay in HeLa cells with MKK4/MKK7 co-transfection; type: cell-based; settings: 1 μM peptide, 16 hours
Description: To determine whether the cell-permeable peptides as defined herein could block JNK signaling in vivo, we used a heterologous GAL4 system. HeLa cells, cultured as described above, were co-transfected with the 5×GAL-LUC reporter vector together with the GAL-Jun expression construct (Stratagene) comprising the activation domain of c-Jun (amino acids 1-89) linked to the GAL4 DNA-binding domain. Activation of JNK was achieved by the co-transfection of vectors expressing the directly upstream kinases MKK4 and MKK7 (see Whitmarsh et al, Science 285: 1573 (1999)). Briefly, 3×10^5 cells were transfected with the plasmids in 3.5-cm dishes using DOTAP (Boehringer Mannheim) following instructions from the manufacturer. For experiments involving GAL-Jun, 20 ng of the plasmid was transfected with 1 μg of the reporter plasmid pFR-Luc (Stratagene) and 0.5 μg of either MKK4 or MKK7 expressing plasmids. Three hours following transfection, cell media were changed and TAT and TAT-IB1(s) peptides (1 μM) were added. The luciferase activities were measured 16 hours later using the “Dual Reporter System” from Promega after normalization to protein content. […] Because HeLa cells express JNK1 and JNK2 isoforms but not JNK3, we transfected cells with JNK3.

[4] = system: TC-3 cell cultures; assay: Cellular import and intracellular persistence of fluorescein-labeled peptides in TC-3 cells; type: cell-based; settings: 1 μM
Protocol: The ability of the L- and D-enantiomeric forms of TAT and TAT-IB1(s) peptides (“TAT-IB peptides”) to enter cells was evaluated. L-TAT, D-TAT, L-TAT-IB1(s), and D-TAT-IB1(s) peptides [SEQ ID NOs: 5, 6, 9 and 12, respectively] were labeled by N-terminal addition of a glycine residue conjugated to fluorescein. Labeled peptides (1 μM) were added to TC-3 cell cultures, which were maintained as described in Example 3. At predetermined times cells were washed with PBS and fixed for five minutes in ice-cold methanol-acetone (1:1) before being examined under a fluorescence microscope. Fluorescein-labeled BSA (1 μM, 12 moles/mole BSA) was used as a control.
Little to no signal was present at 48 hours.

[5] = target: T1, JNK3 (Homo sapiens, UniProt P53779); assay: Solid phase kinase assay, JNK3 phosphorylation of Elk1; type: biochemical; settings: dose response 0-25 μM
T1 construct: host or cells: cell-free: rabbit reticulocyte lysate, in vitro transcription and translation
Protocol: (§1) The effects of the peptides on JNKs-mediated phosphorylation of their target transcription factors were investigated in vitro. Recombinant and non activated JNK1, JNK2 and JNK3 were produced using a TRANSCRIPTION AND TRANSLATION rabbit reticulocyte lysate kit (Promega) and used in solid phase kinase assays with c-Jun, ATF2 and Elk1, either alone or fused to glutathione-S-transferase (GST), as substrates. Dose response studies were performed wherein L-TAT or L-TAT-IB1(s) peptides (0-25 μM) were mixed with the recombinant JNK1, JNK2, or JNK3 kinases in reaction buffer (20 mM Tris-acetate, 1 mM EGTA, 10 mM p-nitrophenyl-phosphate (pNPP), 5 mM sodium pyrophosphate, 10 mM p-glycerophosphate, 1 mM dithiothreitol) for 20 minutes. The kinase reactions were then initiated by the addition of 10 mM MgCl2 and 5 pCi ^33P-dATP and 1 μg of either GST-Jun (aa 1-89), GST-AFT2 (aa 1-96) or GST-ELK1 (aa 307-428). GST-fusion proteins were purchased from Stratagene (La Jolla, Calif.).
Ten μL of glutathione-agarose beads were also added to the mixture. Reaction products were then separated by SDS-PAGE on a denaturing 10% polyacrylamide gel. Gels were dried and subsequently exposed to X-ray films (Kodak). […] The ability of D-TAT, D-TAT-IB1(s) and L-TAT-IB1(s) peptides (0-250 μM dosage study) to inhibit GST-Jun (aa 1-73) phosphorylation by recombinant JNK1, JNK2, and JNK3 by were analyzed as described above. […]

[6] = system: JNKs from UV-light irradiated HeLa cells or IL-1 treated PTC cells; assay: c-Jun phosphorylation by activated JNKs pulled down with GST-Jun from stressed cells; type: biochemical; settings: 25 μM peptide
Protocol: The effects of the L-TAT or L-TAT-IB1(s) peptides as defined herein on JNKs activated by stressful stimuli were evaluated using GST-Jun to pull down JNKs from UV-light irradiated HeLa cells or IL-1 treated PTC cells. PTC cells were cultured as described above. HeLa cells were cultured in DMEM medium supplemented with 10% Fetal Calf Serum, 100 μg/mL Streptomycin, 100 units/ml Penicillin and 2 mM Glutamine. One hour prior to being used for cell extract preparation, PTC cells were activated with IL-1 as described above, whereas HeLa cells were activated by UV-light (20 J/m^2). Cell extracts were prepared from control, UV-light irradiated HeLa cells and IL-1 treated TC-3 cells by scraping the cell cultures in lysis buffer (20 mM Tris-acetate, 1 mM EGTA, 1% Triton X-100, 10 mM p-nitrophenyl-phosphate, 5 mM sodium pyrophosphate, 10 mMP-glycerophosphate, 1 mM dithiothreitol). Debris were removed by centrifugation for five minutes at 15,000 rpm in an SS-34 Beckman rotor. One-hundred μg extracts were incubated for one hour at room temperature with one μg GST-jun (amino acids 1-89) and 10 μL of glutathione-agarose beads (Sigma). Following four washes with the scraping buffer, the beads were resuspended in the same buffer supplemented with L-TAT or L-TAT-IB1(s) peptides (25 μM) for 20 minutes. […]

[7] = system: recombinant JNK1, JNK2 and JNK3; assay: Solid phase kinase assay, phosphorylation of c-Jun, ATF2 and Elk1 by recombinant JNKs; type: biochemical
Protocol: as §1
Ten μL of glutathione-agarose beads were also added to the mixture. Reaction products were then separated by SDS-PAGE on a denaturing 10% polyacrylamide gel. Gels were dried and subsequently exposed to X-ray films (Kodak). […] The ability of D-TAT, D-TAT-IB1(s) and L-TAT-IB1(s) peptides (0-250 μM dosage study) to inhibit GST-Jun (aa 1-73) phosphorylation by recombinant JNK1, JNK2, and JNK3 by were analyzed as described above. Overall, D-TAT-IB1(s) peptide decreased JNK-mediated phosphorylation of c-Jun, but at levels approximately 10-20 fold less efficiently than L-TAT-IB1(s).

[8] = system: Insulin producing TC-3 cells; settings: previously shown (Ammendrup et al.); cited from earlier work

T1 sequence (P53779 whole entry, species assumed): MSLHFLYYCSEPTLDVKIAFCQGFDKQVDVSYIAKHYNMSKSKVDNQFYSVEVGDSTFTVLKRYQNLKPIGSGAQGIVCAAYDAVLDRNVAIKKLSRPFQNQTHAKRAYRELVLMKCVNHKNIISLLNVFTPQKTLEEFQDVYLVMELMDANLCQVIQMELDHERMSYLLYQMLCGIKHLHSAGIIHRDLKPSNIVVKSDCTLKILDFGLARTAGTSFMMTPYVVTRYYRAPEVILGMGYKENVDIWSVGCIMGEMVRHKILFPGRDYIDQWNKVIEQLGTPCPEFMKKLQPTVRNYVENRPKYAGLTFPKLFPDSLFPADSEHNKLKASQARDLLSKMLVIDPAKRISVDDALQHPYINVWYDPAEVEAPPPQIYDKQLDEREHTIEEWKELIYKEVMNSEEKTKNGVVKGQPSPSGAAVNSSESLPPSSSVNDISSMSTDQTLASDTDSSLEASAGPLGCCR

NH2-GRKKRRQRRRPPRPKRPTTLNLFPQVPRSQD-COOH (H-GRKKRRQRRRPPRPKRPTTLNLFPQVPRSQD-OH) [L-TAT-IB1(s)]
long term protection from IL-1 induced cell-death, 15 days [1]: not | formation of the AP-1 DNA binding complex [2]: decrease the formation of the AP-1 DNA binding complex | activation of c-Jun following MKK4 and MKK7 mediated activation of JNK (luciferase) [3]: blocked activation of c-Jun | entry into cells [4]: efficiently and rapidly (less than five minutes) entered cells | inhibition of JNK3 phosphorylation of Elk1 [5]: absence of TAT-IB(s) inhibition | prevention of phosphorylation of c-Jun by activated JNKs [6]: efficiently prevented phosphorylation of c-Jun | inhibiting JNK family phosphorylation of their target transcription factors, overall [7]: superior effects | peptide dose at which nearly complete inhibition of c-Jun, ATF2 and Elk1 phosphorylation by JNKs was observed (as low as) ([7]; dose response 0-25 μM): 2.5 µM

B1: JBD1-280: the GFP vector linked to the entire JBD (aa 1-280) (protein, UniProt Q9UQF2 1-280, looked up, fragment)
chain: MAERESGGLGGGAASPPAASPFLGLHIASPPNFRLTHDISLEEFEDEDLSEITDECGISLQCKDTLSLRPPRAGLLSAGGGGAGSRLQAEMLQMDLIDATGDTPGAEDDEEDDDEERAARRPGAGPPKAESGQEPASRGQGQSQGQSQGPGSGDTYRPKRPTTLNLFPQVPRSQDTLNNNSLGKKHSWQDRVSRSSSPLKTGEQTPPHEHICLSDELPPQSGPAPTTDRGTSTDSPCRRSTATQMAPPGGPPAAPPGGRGHSHRDRIHYQADVRLEATEE
modifications: fused to GFP
block of IL1 induced pancreatic beta-cell apoptosis by transfection [8]: blocked
